Source: ChEMBL document CHEMBL5244262, “Discovery and optimization of benzenesulfonamides-based hepatitis B virus capsid modulators via contemporary medicinal chemistry strategies” (Eur J Med Chem, 2020)

Experiments:
[1] = system: Hepatitis B virus; assay: Antiviral activity against Hepatitis B virus infected in HePAD38 cells; type: functional, organism-based
[2] = Selectivity index, ratio of CC50 for human HePAD38 cells to EC50 for antiviral activity against Hepatitis B virus infected in HePAD38 cells; type: toxicity, cell-based; details: read-out: Ratio CC50/EC50
[3] = Cytotoxicity against human HePAD38 cells; type: toxicity, cell-based
[4] = system: Hepatitis B virus; assay: Antiviral activity against Hepatitis B virus infected in AML12HBV10 cells; type: functional, organism-based
[5] = Cytotoxicity against mouse AML12HBV10; type: toxicity, cell-based; details: AML12HBV10 cells
[6] = Cytotoxicity against human HepDES19 cells; type: toxicity, cell-based
[7] = system: Hepatitis B virus; assay: Antiviral activity against Hepatitis B virus infected in HepDES19 cells; type: functional, organism-based
[8] = system: Hepatitis B virus; assay: Antiviral activity against Hepatitis B virus infected in HepDE19 cells; type: functional, organism-based
[9] = system: Hepatitis B virus; assay: Antiviral activity against Hepatitis B virus infected in HepBHAe82 cells; type: functional, organism-based
[10] = Cytotoxicity against human HepDE19 cells; type: functional
[11] = Cytotoxicity against human HepBHAe82 cells; type: toxicity, cell-based
[12] = system: Hepatitis B virus; assay: Antiviral activity against Hepatitis B virus infected in primary hepatocytes; type: functional, organism-based; details: Hepatocyte
[13] = Cytotoxicity in human primary hepatocytes; type: toxicity, cell-based, Hepatocyte
[14] = system: Hepatitis B virus; assay: Antiviral activity against Hepatitis B virus infected in HepG2.2.15 cells; type: functional, organism-based
[15] = Cytotoxicity against human HepG2.2.15 cells; type: toxicity, cell-based, HepG2 2.2.15
[16] = system: Hepatitis B virus; assay: Ratio of EC50 for antiviral activity against HBV harboring core protein V124I mutant to EC50 for antiviral activity against HBV harboring wild type core protein; type: functional
[17] = system: Hepatitis B virus; assay: Antiviral activity against HBV harboring core protein V124I mutant; type: functional, organism-based
[18] = system: Hepatitis B virus; assay: Ratio of EC50 for antiviral activity against HBV harboring core protein T33Q mutant to EC50 for antiviral activity against HBV harboring wild type core protein; type: functional
[19] = system: Hepatitis B virus; assay: Antiviral activity against HBV harboring wild type core protein; type: functional, organism-based
[20] = system: Hepatitis B virus; assay: Ratio of EC50 for antiviral activity against HBV harboring core protein T33N mutant to EC50 for antiviral activity against HBV harboring wild type core protein; type: functional
[21] = system: Hepatitis B virus; assay: Antiviral activity against HBV harboring core protein P25S mutant; type: functional, organism-based
[22] = system: Hepatitis B virus; assay: Ratio of EC50 for antiviral activity against HBV harboring core protein P25S mutant to EC50 for antiviral activity against HBV harboring wild type core protein; type: functional
[23] = system: Hepatitis B virus; assay: Ratio of EC50 for antiviral activity against HBV harboring core protein T33S mutant to EC50 for antiviral activity against HBV harboring wild type core protein; type: functional
[24] = system: Hepatitis B virus; assay: Antiviral activity against HBV harboring core protein T33S mutant; type: functional, organism-based
[25] = system: Hepatitis B virus; assay: Antiviral activity against HBV harboring core protein T33N mutant; type: functional, organism-based
[26] = system: Hepatitis B virus; assay: Antiviral activity against HBV harboring core protein T33Q mutant; type: functional, organism-based
[27] = system: Hepatitis B virus; assay: Ratio of EC50 for antiviral activity against HBV harboring core protein V124F mutant to EC50 for antiviral activity against HBV harboring wild type core protein; type: functional
[28] = system: Hepatitis B virus; assay: Antiviral activity against HBV harboring core protein P25A mutant; type: functional, organism-based
[29] = system: Hepatitis B virus; assay: Antiviral activity against HBV harboring core protein V124F mutant; type: functional, organism-based
[30] = system: Hepatitis B virus; assay: Ratio of EC50 for antiviral activity against HBV harboring core protein P25A mutant to EC50 for antiviral activity against HBV harboring wild type core protein; type: functional
[31] = system: Hepatitis B virus; assay: Ratio of EC50 for antiviral activity against HBV harboring core protein P25G mutant to EC50 for antiviral activity against HBV harboring wild type core protein; type: functional
[32] = system: Hepatitis B virus; assay: Antiviral activity against HBV harboring core protein P25G mutant; type: functional, organism-based
[33] = Oral bioavailability in mouse; type: ADME, organism-based; details: in vivo
[34] = system: Hepatitis B virus; assay: Antiviral activity against Hepatitis B virus harboring rtL180M/M204V transfected in HepG2 cells; type: functional, organism-based
[35] = system: Hepatitis B virus; assay: Antiviral activity against Hepatitis B virus harboring rtA181V/N236T transfected in HepG2 cells; type: functional, organism-based
[36] = system: Hepatitis B virus; assay: Antiviral activity against Hepatitis B virus harboring rtN236T transfected in HepG2 cells; type: functional, organism-based
[37] = system: Hepatitis B virus; assay: Antiviral activity against Hepatitis B virus harboring rtA181V transfected in HepG2 cells; type: functional, organism-based
[38] = system: Hepatitis B virus; assay: Antiviral activity against Hepatitis B virus harboring rtL180M/M204V/N236T transfected in HepG2 cells; type: functional, organism-based
[39] = system: Hepatitis B virus; assay: Antiviral activity against Hepatitis B virus assessed as inhibition of nucleocapsid assembly; type: functional, organism-based
[40] = Half life in mouse plasma; type: ADME, cell-free
[41] = Half life in human plasma; type: ADME, cell-free
[42] = Oral bioavailability in CD1 mouse; type: ADME, organism-based; details: in vivo
[43] = Half life in dog plasma; type: ADME, cell-free, Canis lupus familiaris
[44] = system: Hepatitis B virus; assay: Antiviral activity against Hepatitis B virus infected in HePAD38 cells assessed as reduction in HBeAg production; type: functional, organism-based

O=C1CCN(S(=O)(=O)c2cc(C(=O)Nc3cc(F)c(F)c(F)c3)ccc2F)CC1
EC50 [1]: 300 nM
selectivity ratio [2]: 24.7
CC50 [3]: 7.41 µM

O=C(Nc1cc(F)c(F)c(F)c1)c1ccc(F)c(S(=O)(=O)N2CC3CC(O)CC3C2)c1 (stereo unspecified)
EC50 [1]: 330 nM
selectivity ratio [2]: 74.1
CC50 [3]: 22.2 µM

CCC(C)NS(=O)(=O)c1ccc(F)c(C(=O)Nc2ccc(F)c(F)c2)c1 (stereo unspecified)
IC50 [4]: 300 nM
CC50 [5]: > 50 µM
CC50 [6]: > 50 µM
IC50 [7]: 100 nM

O=C(Nc1cc(F)c(F)c(F)c1)c1ccc(F)c(S(=O)(=O)NC2CCC(O)CC2)c1 (stereo unspecified)
EC50 [1]: 250 nM
selectivity ratio [2]: 42.7
CC50 [3]: 10.7 µM

O=C(Nc1cc(F)c(F)c(F)c1)c1ccc(F)c(S(=O)(=O)N2CCC(=NO)CC2)c1
EC50 [1]: 210 nM
selectivity ratio [2]: 35.3
CC50 [3]: 7.41 µM

O=C(Nc1cc(F)c(F)c(F)c1)c1ccc(F)c(S(=O)(=O)N2C[C@H]3CC[C@@H]2CC3=O)c1
EC50 [1]: 220 nM
selectivity ratio [2]: 33.7
CC50 [3]: 7.41 µM

Cn1cc2c(c1C(=O)Nc1cc(F)c(F)c(F)c1)OCC1CN(C(=O)c3ncco3)CC1NS2(=O)=O (stereo unspecified)
EC50 [1]: < 1000 nM

O=C(Nc1cc(F)c(F)c(F)c1)c1ccc(F)c(S(=O)(=O)N2C[C@H]3CC[C@@H]2CC3O)c1 (stereo partly specified)
EC50 [1]: 350 nM
selectivity ratio [2]: 30.5
CC50 [3]: 10.7 µM

CC[C@@H](C)NS(=O)(=O)c1ccc(F)c(C(=O)Nc2ccc(F)c(F)c2)c1
EC50 [8]: 80 nM
EC90 [8]: 330 nM
EC50 [4]: 80 nM
EC90 [4]: 330 nM
CC50 [5]: > 10 µM
EC50 [9]: 80 nM
EC90 [9]: 330 nM
CC50 [10]: > 10 µM
CC50 [11]: > 10 µM
EC50 [12]: 80 nM
EC90 [12]: 330 nM
CC50 [13]: > 10 µM
EC50 [14]: 80 nM
EC90 [14]: 330 nM
CC50 [15]: > 10 µM

COC(=O)C1=C(CN2CC(F)(F)C[C@H]2C(=O)O)NC(c2nccs2)=N[C@H]1c1ccc(F)cc1Cl
Ratio [16]: 0.1
EC50 [17]: 9 nM
Ratio [18]: 21.7
EC50 [19]: 91 nM
Ratio [20]: 38.1
EC50 [21]: 902 nM
Ratio [22]: 9.9
Ratio [23]: 1.8
EC50 [24]: 162 nM
EC50 [25]: 3.47 µM
EC50 [26]: 1.97 µM
Ratio [27]: 11.9
EC50 [28]: 735 nM
EC50 [29]: 1090 nM
Ratio [30]: 8.1
Ratio [31]: 15.2
EC50 [32]: 1.38 µM

O=C(Nc1cc(F)c(F)c(F)c1)c1ccc(F)c(S(=O)(=O)N2CCC(O)CC2)c1
bioavailability [33]: ≥ 84.6%
EC50 [34]: 820 nM
Ratio [16]: 0.1
EC50 [17]: 42 nM
Ratio [18]: >13
EC50 [35]: 820 nM
EC50 [19]: 390 nM
Ratio [20]: >13
EC50 [36]: 820 nM
EC50 [21]: 930 nM
Ratio [22]: 2.4
Ratio [23]: 2.3
EC50 [24]: 878 nM
EC50 [25]: > 5 µM
EC50 [1]: 330 nM
selectivity ratio [2]: 15.6
CC50 [3]: 5.14 µM
EC50 [26]: > 5 µM
Ratio [27]: 0.7
EC50 [28]: 895 nM
EC50 [29]: 289 nM
Ratio [30]: 2.3
Ratio [31]: 12.2
EC50 [37]: 820 nM
EC50 [14]: 400 nM
EC50 [32]: 4.75 µM
EC50 [38]: 820 nM

CC(NS(=O)(=O)c1c2ncccc2c(C(=O)Nc2ccc(F)c(F)c2)n1C)C(F)(F)F (stereo unspecified)
IC50 [39]: < 1000 nM
EC50 [14]: 0.1 nM
CC50 [15]: > 30 µM

O=C1CC2CN(S(=O)(=O)c3cc(C(=O)Nc4cc(F)c(F)c(F)c4)ccc3F)CC2C1 (stereo unspecified)
EC50 [1]: 390 nM
selectivity ratio [2]: 48
CC50 [3]: 18.7 µM

C#CCNC(=O)C(=O)c1c(C)c(C(=O)Nc2ccc(F)c(F)c2)n(C)c1C
half-life [40]: > 1440 min
half-life [41]: > 1440 min
bioavailability [42]: > 100%
CC50 [13]: > 10 µM
half-life [43]: > 1440 min
IC50 [44]: 3 nM

COC(=O)C1=C(C)NC(c2ncc(F)cc2F)=N[C@H]1c1ccc(F)cc1Cl
Ratio [16]: 0.09
EC50 [17]: 13 nM
Ratio [18]: 25
EC50 [19]: 149 nM
Ratio [20]: >67
EC50 [21]: 4280 nM
Ratio [22]: 28.7
Ratio [23]: 3
EC50 [24]: 451 nM
EC50 [25]: > 10 µM
EC50 [26]: 3.72 µM
Ratio [27]: 15.7
EC50 [28]: 3450 nM
EC50 [29]: 2330 nM
Ratio [30]: 23.2
Ratio [31]: >67
EC50 [32]: > 10 µM
